The record followed here is article PMC4598760 (Biomolecules, 2015).

Read-outs that look alike come from different tables or passages of the source.

Assay [1] has as its system hemagglutinin (HA) on immobilized influenza virus A/Mem71 (H3N1). The format is binding, influenza A virus A/Memphis/1971.
In assay [2] the test system is influenza virus A/Mem71 (H3N1). As to conditions: for Kd: read-out: K*d (apparent).
In assay [3] the test system is A/Philippines/2/82/X-79 (A/Philips, H3N2).
The subject of assay [4] is A/Udorn/307/1972 (A/Udorn72, H3N2).

Turning to `CC(=O)N[C@H]1[C@H]([C@H](O)[C@H](O)CO)O[C@@](O[C@H]2[C@@H](O)[C@@H](CO)O[C@@H](O[C@H]3[C@H](O)[C@@H](O)C(O)O[C@@H]3CO)[C@@H]2O)(C(=O)O)C[C@@H]1O` (stereo partly drawn) [α2-3 sialyllactose (OS-11), α2-3-sialyllactose], the Kd in assay [1] worked out at 26.3 mM; in assay [1] (monovalent, 288 K) it was 2.6 mM; in assay [1] (monovalent, 293 K), 6.4 mM; in assay [1] (monovalent, 296 K), 18.8 mM. Further, in assay [1], the Koff was determined as 0.0736 s⁻¹.
As to `CC(=O)N[C@H]1[C@H]([C@H](O)[C@H](O)CO)O[C@@](OC[C@H]2O[C@@H](O[C@H]3[C@H](O)[C@@H](O)C(O)O[C@@H]3CO)[C@H](O)[C@@H](O)[C@H]2O)(C(=O)O)C[C@@H]1O` (stereo partly drawn) [α2-6 sialyllactose (OS-21), α2-6-sialyllactose], the Kd stood at 47.6 mM in assay [1]; 6.8 mM in assay [1] (monovalent, 288 K); 11.2 mM in assay [1] (monovalent, 293 K); 23.8 mM in assay [1] (monovalent, 296 K). In assay [1], this compound had a Koff of 0.128 s⁻¹.
As for Kdnα2-6Galβ1-4Glcβ-Biotin [OS-19], the “virus binding to surface-bound glycan (in words)” value in assay [2] is listed as “does not bind”.
With Neu5Acα2-3Galβ1-4Glcβ-Biotin [OS-11], in assay [2], the “K*off (apparent)” value stood at 4.1e-06 s⁻¹, the “K*on (apparent)” value turned out to be 7200 M⁻¹ s⁻¹ and the Kd amounted to 0.58 nM.
For the compound Neu5Acα2-6GalNAcα-Biotin [OS-18], the “virus binding to surface-bound glycan (in words)” value in assay [2] is “binds”.
With Neu5Acα2-6Galβ1-4Glcβ-Biotin [OS-21], in assay [2], the “K*off (apparent)” value was below 3e-06 s⁻¹, the “K*on (apparent)” value stood at 7000 M⁻¹ s⁻¹ and the Kd is below 0.43 nM.
On to Neu5Gcα2-6Galβ1-4Glcβ-Biotin [OS-20], for which the “virus binding to surface-bound glycan (in words)” value in assay [3] is listed as “do not”; in assay [4], “binds”.
